Experiment [1] can be described thus: FRET spectroscopy probe dilution assay, membrane intercalation. It counts as binding. The conditions noted are these: NBD-PE/rhodamine-PE, peptide 0.2-0.8 μM, 20 mM HEPES 150 mM NaCl pH 7.4, 37°C. As for the experimental part: FRET spectroscopy served as a sensitive tool to detect lipid dependence of the membrane interaction of antimicrobial peptides. For this, all peptides were added to liposomes consisting of zwitterionic PC alone, of a mixture of PC and of negatively charged PS, as well as of pure PS (Figure 1). All lipid vesicles were doped with donor and acceptor dyes, peptides were added, and the emission intensities of both dyes were monitored over time. An increase of the fluorescence intensity of the donor (IDonor) and a simultaneous decrease of the fluorescence intensity of the acceptor dye (IAcceptor), i.e. a reduced FRET efficacy, indicated an increase in the overall mean distance between labeled phospholipids, and corresponded to an insertion of peptides into the lipid bilayer. For clarity, the IDonor/IAcceptor ratio is shown (Figure 1).
Figure 1 FRET spectroscopy. (A-C) Binding to and insertion of peptide C7A-D21K into phospholipid membranes (A) C7A-D21K was added at time point 50 s to liposomes (10 μM) consisting of pure PC, (B) a 90:10 molar mixture of PC:PS, and (C) of pure PS, each doubly doped with the fluorescently labeled FRET pair NBD-PE (donor) and rhodamine-PE (acceptor). Intercalation was monitored by measuring donor and acceptor fluorescence emission intensities. For better visualization only the quotient (IDonor/IAcceptor) is shown. Addition of the peptide solvent alone had no effect (dotted grey line). Peptide concentrations used: 0.2 μM (dotted black line, only in C), 0.4 μM (solid grey line, only in C), and 0.8 μM (solid black line). (D-F) Binding to and insertion of peptides at different concentrations into phospholipid membranes. (A) Peptides were added to liposomes consisting of pure PC, (B) a 90:10 molar mixture of PC:PS, and (C) of pure PS, each doubly doped with the fluorescently labeled phospholipid FRET pair NBD-PE (donor) and rhodamine-PE (acceptor). Intercalation was monitored by measuring donor and acceptor fluorescence intensities. The relative increase of the IDonor/IAcceptor ratio 250 s after peptide addition is shown (Increase of IDonor/IAcceptor (%) = (IDonor/IAcceptor (peptide) - IDonor/IAcceptor (control))*100). Peptide concentrations used: 0.2 μM (open bars), 0.4 μM (grey bars), and 0.8 μM (black bars).
Intercalation of peptides into liposome membranes was determined by FRET spectroscopy applied as a probe dilution assay. Liposomes were prepared by dissolving appropriate lipid mixtures (pure PC, a 90:10 molar mixture of PC:PS, as well as pure PS, each doped with 1% of the donor dye NBD-PE and 1% of the acceptor dye rhodamine-PE) in chloroform and drying them under a gentle stream of nitrogen. The resulting lipid film was dispersed in 20 mM HEPES, 150 mM NaCl, pH 7.4, sonicated for 30 min and subjected to 3-4 temperature cycles from 4 to 60°C with an incubation period of 30 min at each step. Lipid dispersions were stored at 4°C overnight before use. For the assay, donor fluorescence (NBD) was excited at 470 nm, and donor (NBD, ID at 531 nm) as well as acceptor (rhodamine, IA at 593 nm) emission intensities were monitored over time. An increase of the ratio of the donor fluorescence intensity to that of the acceptor fluorescence intensity (IDonor/I^Acceptor) was interpreted as a membrane intercalation event. This ratio depends on the Förster efficiency, therefore a rising value means that the mean distance separation of donor and acceptor dyes is raising. The assay was performed at 37°C.

The test system of the next experiment is HROC24 xenografts. The experiment is described as follows: HROC24 xenograft, repetitive local peptide injection. The conditions noted are these: for Tumor growth inhibition in words / Tumors macroscopically breaking up / ulceration / Tumor size, x-fold increase vs. day 0 (Vt/V0): 1 mg/kg bw local injection every third day, 9 injections, n=5; for Tumor cell apoptosis, M30 CytoDeath staining (cytokeratin 18 cleavage): immunofluorescence of cryopreserved tumor sections; for Tumor size, x-fold increase vs. day 0 (Vt/V0): PBS control: 10.3-fold. It counts as in vivo, NMRI Foxn1nu mice. The method, then:
Figure 7 In vivo growth kinetics and tumor cell apoptosis of HROC24 tumors in NMRI Foxn1mice with or without local treatment (A) Therapy was performed by repetitive local application of HDPs C7A or C7A-D21K (1 mg/kg bw) every third day (a total of 9 injections) (n=5 per group). Tumor-carrying control animals received either equivalent volumes of peptide NK11 or saline (n=5 per group). Tumor volumes are given as x-fold increase vs. day 0 (Vt/V0) (start of treatment) ± SD. *p<0.05 vs. PBS. (B) Representative immunofluorescence staining of apoptotic cells within HROC24 tumors. Cryopreserved tumor sections were stained with anti-M30 CytoDeath antibody, followed by anti-mouse IgG FITC antibody and nuclear DAPI as described in material and methods.
Experiments were performed on female 8–10-week old NMRI Foxn1^nu mice (Charles River, Sulzfeld, Germany) weighting 18-20 g. All animals were fed standard laboratory chow and given free access to water. Trials were performed in accordance with the German legislation on protection of animals and the Guide for the Care and Use of Laboratory Animals (Institute of Laboratory Animal Resources, National Research Council; NIH Guide, vol.25, no.28, 1996). NMRI Foxn1^nu mice were challenged with 5 × 10^6 HROC24 cells. Mice with established subcutaneous (s.c.) tumors received repetitive local injections of peptide C7A or C7A-D21K (1mg/kg bw, dissolved in 50 μl) every third day (a total of 9 injections) (n=5 per group). As control, tumor-carrying mice either received NK11 (1mg/kg bw, dissolved in 50 μl) or saline (50μl volume, n=5 per group). Tumor growth was controlled three times a week at time point of HDP injection and tumor volume was estimated according to the formula: V= width² * length * 0.52.
Tumor carrying mice were sacrificed at day 28 or when they became moribund before the tumor volume reached 2.000 mm³. At the end of each experiment, tumors, blood and spleens were collected from the animals of all groups for further analysis.
To study apoptotic cell death in vivo, 4 μm sections of HDP-treated and control tumors were mounted on poly-L-lysine-coated-slides. Following fixation in ice-cold methanol and blocking with 2% BSA (1h), cells were incubated with mouse anti-M30 CytoDeath antibody according to the manufacturer's instructions (Roche, Mannheim, Germany). A FITC-labeled anti-mouse IgG antibody was used as secondary antibody (Dako Envision Link, Hamburg, Germany). Cell nuclei were stained with DAPI and slides were embedded in mounting medium (Dako). Apoptotic cells were detected using a fluorescence microscope (Olympus, Münster, Germany).

As to “KILRGVAKKIMRTFLRRISKDILTGKK [Peptide C7A, NK-2 derivative, Cys7 replaced with Ala]”, in experiment [1] (PC:PS 90:10 liposomes 10 μM), the “Membrane intercalation (increase of IDonor/IAcceptor)” value is reported as “slightly impaired”. In addition, the “Membrane intercalation (increase of IDonor/IAcceptor)” value in experiment [1] (pure PS liposomes 10 μM) was “pronounced”. In the experiment on HROC24 xenografts, the “Tumor growth inhibition in words” value was “most effectiveness”; the “Tumors macroscopically breaking up / ulceration” value was 4/5; the “Tumor cell apoptosis, M30 CytoDeath staining (cytokeratin 18 cleavage)” value (shortened to “Tumor cell apoptosis”) was “most strongly induced”.

As for “KILRGVAKKIMRTFLRRISKKILTGKK [Peptide C7A-D21K, C7A with Asp21 substituted by Lys]”, the “Membrane intercalation (increase of IDonor/IAcceptor)” value in experiment [1] (PC:PS 90:10 liposomes 10 μM) is given as “slightly impaired”. In addition, in experiment [1] (pure PS liposomes 10 μM), the “Membrane intercalation (increase of IDonor/IAcceptor)” value was “pronounced”. Further, in the experiment with HROC24 xenografts, the “Tumor growth inhibition in words” value is reported as “strong growth retardation”; the “Tumors macroscopically breaking up / ulceration” value was “no ulceration was observed”; the “Tumor size, x-fold increase vs. day 0 (Vt/V0)” value was 3.4 fold; the “Tumor cell apoptosis” value is “most strongly induced”.

With “KISKRILTGKK [NK11, non-toxic control peptide based on NK-2, reference compound]”, the “Membrane intercalation (increase of IDonor/IAcceptor)” value was “negligible” in experiment [1] (PC:PS 90:10 liposomes 10 μM), “negligible” in experiment [1] (pure PC liposomes 10 μM) and “visible” in experiment [1] (pure PS liposomes 10 μM). Also, the “Tumor growth inhibition in words” value in the experiment with HROC24 xenografts is on record as “induced tumor growth retardation as well”. The “Tumor size, x-fold increase vs. day 0 (Vt/V0)” value in the experiment with HROC24 xenografts is reported as 4 fold. The “Tumor cell apoptosis” value with HROC24 xenografts was “elevated cytokeratin 18 cleavage”.

Source of the values: PMC4147338, “Host defense peptides for treatment of colorectal carcinoma – a comparative in vitro and in vivo analysis” (Oncotarget, 2014).
